Results as given in patent publication US20070275967A1, “Pyrazolinols” (BAYER CROPSCIENCE AKTIENGESELLSCHAFT, priority 2003, published 2007).

Experiment: logP determination by HPLC on reversed-phase column (EEC Directive 79/831 Annex V.A8)
Type: physicochemical
Conditions: acidic range (pH 2.3), marked a); 0.1% aqueous phosphoric acid/acetonitrile gradient; reversed-phase C 18; 43° C.
Protocol: The logP values given in the table were determined in accordance with EEC Directive 79/831 Annex V.A8 by HPLC (High Performance Liquid Chromatography) on a reversed-phase column (C 18). Temperature: 43° C. (a) Mobile phases for the determination in the acidic range (pH 2.3): 0.1% aqueous phosphoric acid, acetonitrile; linear gradient from 10% acetonitrile to 90% acetonitrile—the corresponding measurement results in table 1 are marked a). (b) Mobile phases for the determination in the neutral range (pH 7.5): 0.01-molar aqueous phosphate buffer solution, acetonitrile; linear gradient from 10% acetonitrile to 90% acetonitrile—the corresponding measurement results in table 1 are marked b). Calibration was carried out using unbranched alkan-2-ones (having 3 to 16 carbon atoms) with known logP values (determination of the logP values by the retention times using linear interpolation between two successive alkanones).

Row | logP | Compound
1 | logP = 3.72^a) | CC(C)CC1=NN(C(=O)Nc2ccccc2)C(O)(C(F)(F)F)C1 (racemic) [Example 3]
2 | logP = 4.63^a) | CC(C)CC1=NN(C(=O)Nc2ccc(Cl)c(Cl)c2)C(O)(C(F)(F)F)C1 (racemic) [Example 4]
3 | logP = 4.18^a) | CC(C)CC1=NN(C(=O)Nc2ccc(Cl)cc2)C(O)(C(F)(F)F)C1 (racemic) [Example 5]
4 | logP = 4.31^a) | CC(C)CC1=NN(C(=S)Nc2ccccc2)C(O)(C(F)(F)F)C1 (racemic) [Example 7]
5 | logP = 4.23^a) | CC(C)CC1=NN(C(=S)Nc2ccccc2F)C(O)(C(F)(F)F)C1 (racemic) [Example 11]
6 | logP = 3.41^a) | CCC1=NN(C(=O)Nc2ccc(Cl)cc2)C(O)(C(F)(F)F)C1 (racemic) [Example 13]
7 | logP = 4.84^a) | CCC1=NN(C(=S)Nc2ccc(C(C)(C)C)cc2)C(O)(C(F)(F)F)C1 (racemic) [Example 16]
8 | logP = 4.09^a) | CC(C)C1=NN(C(=O)Nc2ccc(OC(F)(F)F)cc2)C(O)(C(F)(F)F)C1 (racemic) [Example 17]
9 | logP = 3.79^a) | CC(C)C1=NN(C(=O)Nc2ccc(Cl)cc2)C(O)(C(F)(F)F)C1 (racemic) [Example 18]
10 | logP = 5.18^a) | CC(C)C1=NN(C(=S)Nc2ccc(C(C)(C)C)cc2)C(O)(C(F)(F)F)C1 (racemic) [Example 21]
11 | logP = 4.17^a) | COc1ccc(NC(=S)N2N=C(CC(C)C)CC2(O)C(F)(F)F)cc1 (racemic) [Example 23]
12 | logP = 5.50^a) | CC(C)CC1=NN(C(=S)Nc2ccc(C(C)(C)C)cc2)C(O)(C(F)(F)F)C1 (racemic) [Example 25]
13 | logP = 3.32^a) | CC(C)C1=NN(C(=O)Nc2ccccc2)C(O)(C(F)(F)F)C1 (racemic) [Example 28]
14 | logP = 1.96^a) | CC(C)C1=NN(C(=S)Nc2cccnc2)C(O)(C(F)(F)F)C1 (racemic) [Example 35]
15 | logP = 4.61^a) | CC(C)C1=NN(C(=S)Nc2ccc(OC(F)(F)F)cc2)C(O)(C(F)(F)F)C1 (racemic) [Example 36]
16 | logP = 4.10^a) | CC(C)C1=NN(C(=O)Nc2ccccc2Cl)C(O)(C(F)(F)F)C1 (racemic) [Example 37]
17 | logP = 3.57^a) | CCC1=NN(C(=S)Nc2ccccc2)C(O)(C(F)(F)F)C1 (racemic) [Example 38]
18 | logP = 2.91^a) | CCC1=NN(C(=O)Nc2ccccc2)C(O)(C(F)(F)F)C1 (racemic) [Example 39]
19 | logP = 3.78^a) | CC(C)C1=NN(C(=S)NCc2ccco2)C(O)(C(F)(F)F)C1 (racemic) [Example 41]

Row | logP | Compound
20 | logP = 2.47^a) | CC(C)C1=NN(C(N)=S)C(O)(C(F)(F)F)C1 (racemic) [Example 45]
21 | logP = 1.15^a) | CC(C)C1=NN(C(=O)Nc2cccnc2)C(O)(C(F)(F)F)C1 (racemic) [Example 47]
22 | logP = 1.78^a) | CC(C)C1=NN(C(=O)Nc2ccccn2)C(O)(C(F)(F)F)C1 (racemic) [Example 48]
23 | logP = 3.43^a) | CCC1=NN(C(=O)Nc2ccc(Cl)cc2)C(O)(C(F)(F)F)C1 (racemic) [Example 49]
24 | logP = 2.96^a) | CCC1=NN(C(=O)Nc2ccc(F)cc2)C(O)(C(F)(F)F)C1 (centres unmarked) [Example 50]
25 | logP = 2.65^a) | CCC1=NN(C(=O)Nc2ccc(C#N)cc2)C(O)(C(F)(F)F)C1 (centres unmarked) [Example 51]
26 | logP = 4.07^a) | O=C(Nc1ccc(OC(F)(F)F)cc1)N1N=C(C2(Cl)CC2)CC1(O)C(F)(F)F (centres unmarked) [Example 52]
27 | logP = 4.27^a) | CCC1=NN(C(=S)Nc2ccc(C(F)(F)F)cc2)C(O)(C(F)(F)F)C1 (centres unmarked) [Example 54]
28 | logP = 4.53^a) | CCC1=NN(C(=S)Nc2ccc(Cl)cc2Cl)C(O)(C(F)(F)F)C1 (centres unmarked) [Example 57]
29 | logP = 4.16^a) | CC(C)(C)C1=NN(C(=O)Nc2ccc(Cl)cc2)C(O)(C(F)(F)F)C1 (centres unmarked) [Example 58]
30 | logP = 4.62^a) | CC(C)(C)C1=NN(C(=O)Nc2ccc(Cl)c(Cl)c2)C(O)(C(F)(F)F)C1 (centres unmarked) [Example 59]
31 | logP = 3.34^a) | CC(C)(C)C1=NN(C(=O)Nc2ccc(C#N)cc2)C(O)(C(F)(F)F)C1 (centres unmarked) [Example 60]
32 | logP = 3.54^a) | COc1ccc(NC(=S)N2N=C(C(C)(C)C)CC2(O)C(F)(F)F)cc1 (centres unmarked) [Example 61]
33 | logP = 4.62^a) | Cc1ccc(NC(=S)N2N=C(C(C)(C)C)CC2(O)C(F)(F)F)cc1 (centres unmarked) [Example 62]
34 | logP = 4.58^a) | CC(C)(C)C1=NN(C(=O)Nc2ccccc2)C(O)(C(F)(F)F)C1 (centres unmarked) [Example 65]
35 | logP = 3.68^a) | CC(C)(C)C1=NN(C(=O)NC2CCCCC2)C(O)(C(F)(F)F)C1 (centres unmarked) [Example 66]
36 | logP = 4.41^a) | CC(C)(C)C1=NN(C(=O)Nc2ccc(OC(F)(F)F)cc2)C(O)(C(F)(F)F)C1 (centres unmarked) [Example 67]
37 | logP = 5.18^a) | CC(C)(C)C1=NN(C(=O)Nc2ccc(Cl)cc2Cl)C(O)(C(F)(F)F)C1 (centres unmarked) [Example 68]
38 | logP = 4.48^a) | CC(C)(C)C1=NN(C(=O)Nc2ccccc2Cl)C(O)(C(F)(F)F)C1 (centres unmarked) [Example 69]

Row | logP | Compound
39 | logP = 3.94^a) | CC(C)(C)C1=NN(C(=O)NCc2ccc(Cl)cc2)C(O)(C(F)(F)F)C1 (centres unmarked) [Example 71]
40 | logP = 3.97^a) | CC(C)(C)C1=NN(C(=O)NCc2ccccc2Cl)C(O)(C(F)(F)F)C1 (centres unmarked) [Example 72]
41 | logP = 4.34^a) | CCC1=NN(C(=O)Nc2cc(Cl)cc(Cl)c2)C(O)(C(F)(F)F)C1 (centres unmarked) [Example 76]
42 | logP = 4.41^a) | OC1(C(F)(F)F)CC(C2(Cl)CC2)=NN1C(=S)Nc1ccc(C(F)(F)F)cc1 (centres unmarked) [Example 78]
43 | logP = 4.36^a) | OC1(C(F)(F)F)CC(C2(Cl)CC2)=NN1C(=S)Nc1ccc(Cl)cc1 (centres unmarked) [Example 79]
44 | logP = 3.41^a) | O=C(Nc1ccc(Cl)cc1)N1N=C(c2ccco2)CC1(O)C(F)(F)F (centres unmarked) [Example 80]
45 | logP = 3.99^a) | OC1(C(F)(F)F)CC(c2ccco2)=NN1C(=S)Nc1ccc(Cl)cc1 (centres unmarked) [Example 81]
46 | logP = 3.97^a) | O=C(Nc1ccc(Cl)cc1)N1N=C(c2ccccc2)CC1(O)C(F)(F)F (centres unmarked) [Example 82]
47 | logP = 3.30^a) | CCC1=NN(C(=S)Nc2c(F)cccc2F)C(O)(C(F)(F)F)C1 (centres unmarked) [Example 84]
48 | logP = 4.47^a) | CCC1=NN(C(=S)Nc2cc(Cl)ccc2Cl)C(O)(C(F)(F)F)C1 (centres unmarked) [Example 85]
49 | logP = 3.47^a) | CCC1=NN(C(=S)Nc2ccc(OC)cc2)C(O)(C(F)(F)F)C1 (centres unmarked) [Example 86]
50 | logP = 4.29^a) | CCC1=NN(C(=S)Nc2cccc(Cl)c2Cl)C(O)(C(F)(F)F)C1 (centres unmarked) [Example 87]
51 | logP = 4.52^a) | CCC1=NN(C(=S)Nc2ccc(Oc3ccccc3)cc2)C(O)(C(F)(F)F)C1 (centres unmarked) [Example 88]
52 | logP = 3.52^a) | CCC1=NN(C(=S)Nc2c(F)cc(F)cc2F)C(O)(C(F)(F)F)C1 (centres unmarked) [Example 89]
53 | logP = 4.51^a) | CCC1=NN(C(=S)Nc2cc(C(F)(F)F)ccc2Cl)C(O)(C(F)(F)F)C1 (centres unmarked) [Example 90]
54 | logP = 3.85^a) | CCC1=NN(C(=S)Nc2ccccc2OC)C(O)(C(F)(F)F)C1 (centres unmarked) [Example 91]
55 | logP = 4.75^a) | CCC1=NN(C(=S)Nc2cc(Cl)cc(Cl)c2)C(O)(C(F)(F)F)C1 (centres unmarked) [Example 92]
56 | logP = 3.62^a) | CCC1=NN(C(=S)Nc2ccc(F)cc2)C(O)(C(F)(F)F)C1 (centres unmarked) [Example 93]
